The values that follow come from patent publication US10138233B2, “Imidazole compounds as modulators of FSHR and uses thereof” (Merck Patent GmbH, priority 2013, dated 2018).

Each structure is given as a SMILES string. A value given as a limit tells only on which side of the number the result lay.

As a reminder, the EC50 is the concentration that produces a half-maximal response.

The target in the assay is T1, FSHR (Homo sapiens, UniProt P23945).
T1 construct: expressed in transfected cells; host or cells: CHO cells, clone Cho-FSHR-LUC-1-1-43
T1 sequence (P23945 18-695): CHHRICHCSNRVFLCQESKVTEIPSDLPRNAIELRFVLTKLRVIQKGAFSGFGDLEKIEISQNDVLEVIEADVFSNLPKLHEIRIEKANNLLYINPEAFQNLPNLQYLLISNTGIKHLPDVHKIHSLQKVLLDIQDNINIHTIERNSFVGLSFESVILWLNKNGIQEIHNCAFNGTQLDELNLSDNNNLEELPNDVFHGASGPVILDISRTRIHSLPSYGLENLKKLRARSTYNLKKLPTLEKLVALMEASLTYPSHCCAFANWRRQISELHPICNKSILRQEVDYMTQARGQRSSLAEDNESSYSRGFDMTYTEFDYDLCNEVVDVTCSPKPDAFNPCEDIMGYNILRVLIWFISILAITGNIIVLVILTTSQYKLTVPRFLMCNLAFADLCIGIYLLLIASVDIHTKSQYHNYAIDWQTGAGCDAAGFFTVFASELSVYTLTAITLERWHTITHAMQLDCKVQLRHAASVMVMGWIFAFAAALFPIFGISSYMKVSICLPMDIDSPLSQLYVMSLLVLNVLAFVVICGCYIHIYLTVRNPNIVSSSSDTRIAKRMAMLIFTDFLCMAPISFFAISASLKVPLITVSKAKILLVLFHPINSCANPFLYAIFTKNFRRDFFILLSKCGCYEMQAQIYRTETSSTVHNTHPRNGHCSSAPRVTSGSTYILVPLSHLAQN
Briefly: EC50 of cyclic AMP production in CHO FSHR cells + EC20 FSH (Assay A). The class given is cell-based. Particulars: CHO-FSHR-LUC cells, in presence of EC20 FSH, cAMP HTRF, 1 h 37° C. On the procedure: EC50 of cyclic AMP production in CHO FSHR cells+EC20 FSH (Assay A)
2500 Cho-FSHR-LUC-1-1-43 cells were plated per well in 5 μl of phenol red free DMEM/F12+1% FBS. […] Cells were assayed by adding 100 μl of 2×EC20 FSH/IBMX in DMEM/F12+0.1% BSA) by Multidrop to 2 μl of test compound stamped in 384 well plates (compounds are diluted 1:50). […] The compound plate map was as follows: Column 1: 2 μl of DMSO; Column 2: 2 μl of DMSO; Columns 3-12 and 13-24: 2 μl of test compound, diluted 1:4 in 100% DMSO, or 2 μl of FSH, diluted 1:4 in DMEM/F12+0.1% BSA. The starting concentration for FSH was 50 nM (final concentration was 0.5 nM). […] 10 μl of mixed HTRF (CisBio #62AM4PEC) reagents were added per well and incubated at room temperature for 1 h. The plates were read on Envision using the cAMP HTRF—low volume 384 well protocol. […] Values given in percent (%) indicate the percental effect (response) at a certain concentration of agonist relative to the maximum response of the FSH standard.
Background: In TR-FRET formats the signal depends on donor and acceptor labels being close together.
For the compound `CCCn1nccc1-c1nc(C(=O)N2CCOCC2(C)C)c2n1-c1cc(OC(C)C)c(OC)cc1CC2` [Compound 88], the EC50 lay in the range of 100 to 1000 nM.

Turning to `COc1cc2c(cc1OC(C)C)-n1c(-c3cccc4cn[nH]c34)nc(C(=O)N3CCOCC3(C)C)c1CC2` [Compound 89], the EC50 lay within 1000 to 5000 nM.

As to `[2H]C([2H])([2H])NC(=O)c1cc2c(cc1OC)CCc1c(C(=O)N(C)C(C)(C)C)nc(-c3cccs3)n1-2` [Compound 90, 7-Methoxy-1-thiophen-2-yl-4,5-dihydro-imidazo[1,5-a]quinoline-3,8-dicarboxylic acid 3-(tert-butyl-methyl-amide) 8-methyl-d3-amide], the EC50 was 1000 to 5000 nM.

As to `CCCn1nc(C)cc1-c1nc(C(=O)N2CCOCC2(C)C)c2n1-c1cc(OC(C)C)c(OC)cc1CC2` [Compound 91], the EC50 is 1000 to 5000 nM.

Consider `CCn1nccc1-c1nc(C(=O)N2CCOCC2(C)C)c2n1-c1cc(OC(C)C)c(OC)cc1CC2` [Compound 92], for which the EC50 lay within 100 to 1000 nM.

`COc1cc2c(cc1OC(C)C)-n1c(C3=CCCN(C)C3)nc(C(=O)N3CCOCC3(C)C)c1CC2` [Compound 93]: the EC50 is over 5000 nM.

As to `COc1cc2c(cc1CC(C)C)-n1c(C3CCOC3)nc(C(=O)N(C)C(C)(C)C)c1CC2` (centres unmarked) [Compound 94, N-(tert-butyl)-8-isobutyl-7-methoxy-N-methyl-1-(tetrahydrofuran-3-yl)-4,5-dihydroimidazo[1,5-a]quinoline-3-carboxamide], the EC50 lay in the range of 1000 to 5000 nM.

For the compound `COc1cc2c(cc1CC(C)C)-n1c(-c3cc(C)cs3)nc(C(=O)N(C)C(C)(C)C)c1CC2` [Compound 95, 8-Isobutyl-7-methoxy-1-(4-methyl-thiophen-2-yl)-4,5-dihydro-imidazo[1,5-a]quinoline-3-carboxylic acid tert-butyl-methyl-amide], the EC50 lay in the range of 100 to 1000 nM.

For the compound `COc1cc2c(cc1-c1ccn(C)c1)-n1c(-c3cccs3)nc(C(=O)NC3(C)COC3)c1CC2` [Compound 98, 7-Methoxy-8-(1-methyl-1H-pyrrol-3-yl)-1-thiophen-2-yl-4,5-dihydro-imidazo[1,5-a]quinoline-3-carboxylic acid (3-methyl-oxetan-3-yl)-amide], the EC50 is 1000 to 5000 nM.

Take `COc1cc2c(cc1OC(C)C)-n1c(-c3sc(C)cc3C)nc(C(=O)N3CCOCC3(C)C)c1CC2` [Compound 99]: the EC50 lay within 100 to 1000 nM.

For `COc1cc2c(cc1OC(C)C)-n1c(C3=CCCC3(C)C)nc(C(=O)N3CCOCC3(C)C)c1CC2` [Compound 100], the EC50 is under 100 nM.

For `COc1cc2c(cc1OC(C)C)-n1c(-c3cc(Cl)ccc3F)nc(C(=O)N3CCOCC3(C)C)c1CC2` [Compound 101], the EC50 is 100 to 1000 nM.

Consider `COc1ccc(-c2nc(C(=O)N3CCOCC3(C)C)c3n2-c2cc(OC(C)C)c(OC)cc2CC3)cc1Cl` [Compound 103], for which the EC50 is over 5000 nM.

Take `COc1cc2c(cc1OC(C)C)-n1c(-c3cc(F)ccc3OC)nc(C(=O)N3CCOCC3(C)C)c1CC2` [Compound 104]: the EC50 fell in the range of 1000 to 5000 nM.

As to `COc1cc2c(cc1OC(C)C)-n1c(-c3cc(Cl)ccc3OC)nc(C(=O)N3CCOCC3(C)C)c1CC2` [Compound 105], the EC50 was 1000 to 5000 nM.

For the compound `COc1cc2c(cc1OC(C)C)-n1c(-c3ccsc3C)nc(C(=O)N3CCOCC3(C)C)c1CC2` [Compound 106], the EC50 lay in the range of 100 to 1000 nM.

On to `COc1cc2c(cc1OC(C)C)-n1c(-c3ccc(F)c(C#N)c3)nc(C(=O)N3CCOCC3(C)C)c1CC2` [Compound 107], for which the EC50 is over 5000 nM.

As to `COc1cc(-c2nc(C(=O)N3CCOCC3(C)C)c3n2-c2cc(OC(C)C)c(OC)cc2CC3)ccc1F` [Compound 108], the EC50 was 1000 to 5000 nM.

Consider `COc1cc2c(cc1OC(C)C)-n1c(-c3ccc(Cl)c(F)c3)nc(C(=O)N3CCOCC3(C)C)c1CC2` [Compound 109], for which the EC50 was in the range of 100 to 1000 nM.

For `COc1cc2c(cc1OC(C)C)-n1c(-c3ccc(F)c(C(F)(F)F)c3)nc(C(=O)N3CCOCC3(C)C)c1CC2` [Compound 111], the EC50 fell in the range of 1000 to 5000 nM.

Take `COc1cc2c(cc1OC(C)C)-n1c(-c3cccc(OC)c3F)nc(C(=O)N3CCOCC3(C)C)c1CC2` [Compound 112]: the EC50 lay in the range of 1000 to 5000 nM.

As for `COc1cc2c(cc1OC(C)C)-n1c(-c3cc(Cl)c(F)cc3F)nc(C(=O)N3CCOCC3(C)C)c1CC2` [Compound 113], the EC50 lay in the range of 1000 to 5000 nM.

Take `COc1cccc(-c2nc(C(=O)N3CCOCC3(C)C)c3n2-c2cc(OC(C)C)c(OC)cc2CC3)c1` [Compound 115]: the EC50 lay in the range of 100 to 1000 nM.

For `COc1cc2c(cc1OC(C)C)-n1c(-c3ccc(F)c(Cl)c3)nc(C(=O)N3CCOCC3(C)C)c1CC2` [Compound 116], the EC50 lay in the range of 100 to 1000 nM.

Turning to `COc1cc2c(cc1OC(C)C)-n1c(-c3cc(Cl)ccc3OC(F)(F)F)nc(C(=O)N3CCOCC3(C)C)c1CC2` [Compound 117], the EC50 is 1000 to 5000 nM.

As for `COc1ccc(-c2nc(C(=O)N3CCOCC3(C)C)c3n2-c2cc(OC(C)C)c(OC)cc2CC3)cc1F` [Compound 118], the EC50 was over 5000 nM.

Take `COc1cc2c(cc1OC(C)C)-n1c(-c3cc(C(F)(F)F)cc(C(F)(F)F)c3)nc(C(=O)N3CCOCC3(C)C)c1CC2` [Compound 119]: the EC50 was 100 to 1000 nM.

For the compound `COc1cc2c(cc1OC(C)C)-n1c(-c3cscc3C)nc(C(=O)N3CCOCC3(C)C)c1CC2` [Compound 120], the EC50 was under 100 nM.

As to `COc1cc2c(cc1OC(C)C)-n1c(-c3cccc4c3OCCO4)nc(C(=O)N3CCOCC3(C)C)c1CC2` [Compound 121], the EC50 is over 5000 nM.

In the case of `COc1cc2c(cc1OC(C)C)-n1c(-c3cc(F)c(F)c(Cl)c3)nc(C(=O)N3CCOCC3(C)C)c1CC2` [Compound 122], the EC50 was in the range of 100 to 1000 nM.

Regarding `COc1cc2c(cc1OC(C)C)-n1c(-c3ccc(F)c(Cl)c3F)nc(C(=O)N3CCOCC3(C)C)c1CC2` [Compound 123], the EC50 was in the range of 1000 to 5000 nM.

In the case of `COc1cc2c(cc1OC(C)C)-n1c(-c3ccc(C#N)c(C(F)(F)F)c3)nc(C(=O)N3CCOCC3(C)C)c1CC2` [Compound 124], the EC50 is 1000 to 5000 nM.

With `COc1ccc(-c2nc(C(=O)N3CCOCC3(C)C)c3n2-c2cc(OC(C)C)c(OC)cc2CC3)cc1C` [Compound 125], the EC50 is 1000 to 5000 nM.

Take `COc1cc2c(cc1OC(C)C)-n1c(-c3ccc(C)c(F)c3)nc(C(=O)N3CCOCC3(C)C)c1CC2` [Compound 126]: the EC50 lay in the range of 100 to 1000 nM.

`COc1cc2c(cc1OC(C)C)-n1c(-c3cc(F)ccc3F)nc(C(=O)N3CCOCC3(C)C)c1CC2` [Compound 127]: the EC50 lay within 100 to 1000 nM.

As for `COc1ccc(-c2nc(C(=O)N3CCOCC3(C)C)c3n2-c2cc(OC(C)C)c(OC)cc2CC3)c(C)c1` [Compound 128], the EC50 lay in the range of 1000 to 5000 nM.

Take `COc1cc2c(cc1OC(C)C)-n1c(-c3cc(C)sc3C)nc(C(=O)N3CCOCC3(C)C)c1CC2` [Compound 129]: the EC50 was in the range of 100 to 1000 nM.

With `[2H]C([2H])([2H])N(C(=O)c1nc(-c2cccs2)n2c1CCc1cc(OC)c(-c3ccn(C)n3)cc1-2)C1(C)COC1` [Compound 130, 7-Methoxy-8-(1-methyl-1H-pyrazol-3-yl)-1-thiophen-2-yl-4,5-dihydro-imidazo[1,5-a]quinoline-3-carboxylic acid methyl-d3-(3-methyl-oxetan-3-yl)-amide], the EC50 lay in the range of 100 to 1000 nM.

Regarding `COc1cc2c(cc1OC(C)C)-n1c(C3=CCNCC3)nc(C(=O)N3CCOCC3(C)C)c1CC2` [Compound 131], the EC50 was over 5000 nM.

With `COc1cc2c(cc1-c1n[nH]c(=O)o1)-n1c(-c3cccs3)nc(C(=O)N(C)C(C)(C)C)c1CC2` [Compound 132, 7-Methoxy-8-(5-oxo-4,5-dihydro-[1,3,4]oxadiazol-2-yl)-1-thiophen-2-yl-4,5-dihydro-imidazo[1,5-a]quinoline-3-carboxylic acid tert-butyl-methyl-amide], the EC50 lay in the range of 100 to 1000 nM.

In the case of `COc1cc2c(cc1-c1n[nH]c(=S)o1)-n1c(-c3cccs3)nc(C(=O)N(C)C(C)(C)C)c1CC2` [Compound 133, 7-Methoxy-1-thiophen-2-yl-8-(5-thioxo-4,5-dihydro-[1,3,4]oxadiazol-2-yl)-4,5-dihydro-imidazo[1,5-a]quinoline-3-carboxylic acid tert-butyl-methyl-amide], the EC50 is under 100 nM.
